Measured values as given in patent US20250340574A1, “MODULATORS OF CYSTIC FIBROSIS TRANSMEMBRANE CONDUCTANCE REGULATOR” (Vertex Pharmaceuticals Incorporated, priority 2022, published 2025).
Read-outs that look alike come from different tables or passages of the source.

Molecular target: T1, CFTR (F508del/MF-HBE cells) (Homo sapiens, UniProt P13569, DEL508-508)
T1 construct: human bronchial epithelial (HBE) cells derived from CF subjects heterozygous for F508del and a minimal function CFTR mutation (F508del/MF-HBE); endogenous in cells; host or cells: Primary human bronchial epithelial cells from CF subjects (F508del/MF genotype), differentiated at an air-liquid interface
Test: Ussing chamber assay of CFTR-mediated short-circuit currents, Assay C (0.026 μM to 25 μM, 6 concentrations)
Format: cell-based
Settings: with 33 nM potentiator and 18 μM Tezacaftor, 20% human serum; for Emax: read-out: C Max activity (%)
Experimental: Ussing chamber experiments were performed using human bronchial epithelial (HBE) cells derived from CF subjects heterozygous for F508del and a minimal function CFTR mutation (F508del/MF-HBE) and cultured as previously described (Neuberger T, Burton B, Clark H, Van Goor F Methods Mol Biol 2011:741:39-54). After four days the apical media was removed, and the cells were grown at an air liquid interface for >14 days prior to use.
To isolate the CFTR-mediated short-circuit (ISC) current, F508del/MF-HBE grown on Costar® Snapwell™ cell culture inserts were mounted in an Ussing chamber and the transepithelial ISC was measured under voltage-clamp recording conditions (Vhold=0 mV) at 37° C. The basolateral solution contained (in mM) 145 NaCl, 0.83 K2HPO4, 3.3 KH2PO4, 1.2 MgCl2, 1.2 CaCl2, 10 Glucose, 10 HEPES (pH adjusted to 7.4 with NaOH) and the apical solution contained (in mM) 145 NaGluconate, 1.2 MgCl2, 1.2 CaCl2, 10 glucose, 10 HEPES (pH adjusted to 7.4 with NaOH) and 30 μM amiloride to block the epithelial sodium channel. Forskolin (20 μM) was added to the apical surface to activate CFTR, followed by apical addition of a CFTR inhibitor cocktail consisting of BPO, GlyH-101, and CFTR inhibitor 172 (each at 20 μM final assay concentration) to specifically isolate CFTR currents. The CFTR-mediated ISC (μA/cm^2) for each condition was determined from the peak forskolin response to the steady-state current following inhibition.
The activity of the CFTR corrector compounds on the CFTR-mediated ISC was determined in Ussing chamber studies as described above. The F508del/MF-HBE cell cultures were either incubated with the corrector compounds at a range of concentrations in combination with 33 nM (6R,12R)-17-amino-12-methyl-6,15-bis(trifluoromethyl)-13,19-dioxa-3,4,18-triazatricyclo[12.3.1.12,5]nonadeca-1(18),2,4,14,16-pentaen-6-ol and 18 μM Tezacaftor or were incubated with the corrector compounds at a single fixed concentration of 1 μM in combination with 44 nM (6R,12R)-17-amino-12-methyl-6,15-bis(trifluoromethyl)-13,19-dioxa-3,4,18-triazatricyclo[12.3.1.12,5]nonadeca-1(18),2,4,14,16-pentaen-6-ol and 18 μM Tezacaftor for 18-24 hours at 37° C. and in the presence of 20% human serum. The concentration of corrector compounds with 44 nM or 33 nM (6R,12R)-17-amino-12-methyl-6,15-bis(trifluoromethyl)-13,19-dioxa-3,4,18-triazatricyclo[12.3.1.12,5]nonadeca-1(18),2,4,14,16-pentaen-6-ol and 18 μM Tezacaftor during the 18-24 hours incubations was kept constant throughout the Ussing chamber measurement of the CFTR-mediated ISC to ensure compounds were present throughout the entire experiment. The efficacy and potency of the putative F508del correctors was compared to that of the known Vertex corrector, (14S)-8-[3-(2-{Dispiro[2.0.2.1]heptan-7-yl}ethoxy)-1H-pyrazol-1-yl]-12,12-dimethyl-2λ^6-thia-3,9,11,18,23-pentaazatetracyclo[17.3.1.111,14.05,10]tetracosa-1(22),5,7,9,19(23),20-hexaene-2,2,4-trione, in combination with 18 μM Tezacaftor and 1 μM Ivacaftor.
• Assay A: 0.1 μM to 25 μM, 6 concentrations • Assay B: 0.00001 μM to 25 μM, 12 concentrations • Assay C: 0.026 μM to 25 μM, 6 concentrations • Assay D: Activity at single concentration of 1 μM

T1 sequence (P13569 with tags, fused parts or gaps DEL508-508): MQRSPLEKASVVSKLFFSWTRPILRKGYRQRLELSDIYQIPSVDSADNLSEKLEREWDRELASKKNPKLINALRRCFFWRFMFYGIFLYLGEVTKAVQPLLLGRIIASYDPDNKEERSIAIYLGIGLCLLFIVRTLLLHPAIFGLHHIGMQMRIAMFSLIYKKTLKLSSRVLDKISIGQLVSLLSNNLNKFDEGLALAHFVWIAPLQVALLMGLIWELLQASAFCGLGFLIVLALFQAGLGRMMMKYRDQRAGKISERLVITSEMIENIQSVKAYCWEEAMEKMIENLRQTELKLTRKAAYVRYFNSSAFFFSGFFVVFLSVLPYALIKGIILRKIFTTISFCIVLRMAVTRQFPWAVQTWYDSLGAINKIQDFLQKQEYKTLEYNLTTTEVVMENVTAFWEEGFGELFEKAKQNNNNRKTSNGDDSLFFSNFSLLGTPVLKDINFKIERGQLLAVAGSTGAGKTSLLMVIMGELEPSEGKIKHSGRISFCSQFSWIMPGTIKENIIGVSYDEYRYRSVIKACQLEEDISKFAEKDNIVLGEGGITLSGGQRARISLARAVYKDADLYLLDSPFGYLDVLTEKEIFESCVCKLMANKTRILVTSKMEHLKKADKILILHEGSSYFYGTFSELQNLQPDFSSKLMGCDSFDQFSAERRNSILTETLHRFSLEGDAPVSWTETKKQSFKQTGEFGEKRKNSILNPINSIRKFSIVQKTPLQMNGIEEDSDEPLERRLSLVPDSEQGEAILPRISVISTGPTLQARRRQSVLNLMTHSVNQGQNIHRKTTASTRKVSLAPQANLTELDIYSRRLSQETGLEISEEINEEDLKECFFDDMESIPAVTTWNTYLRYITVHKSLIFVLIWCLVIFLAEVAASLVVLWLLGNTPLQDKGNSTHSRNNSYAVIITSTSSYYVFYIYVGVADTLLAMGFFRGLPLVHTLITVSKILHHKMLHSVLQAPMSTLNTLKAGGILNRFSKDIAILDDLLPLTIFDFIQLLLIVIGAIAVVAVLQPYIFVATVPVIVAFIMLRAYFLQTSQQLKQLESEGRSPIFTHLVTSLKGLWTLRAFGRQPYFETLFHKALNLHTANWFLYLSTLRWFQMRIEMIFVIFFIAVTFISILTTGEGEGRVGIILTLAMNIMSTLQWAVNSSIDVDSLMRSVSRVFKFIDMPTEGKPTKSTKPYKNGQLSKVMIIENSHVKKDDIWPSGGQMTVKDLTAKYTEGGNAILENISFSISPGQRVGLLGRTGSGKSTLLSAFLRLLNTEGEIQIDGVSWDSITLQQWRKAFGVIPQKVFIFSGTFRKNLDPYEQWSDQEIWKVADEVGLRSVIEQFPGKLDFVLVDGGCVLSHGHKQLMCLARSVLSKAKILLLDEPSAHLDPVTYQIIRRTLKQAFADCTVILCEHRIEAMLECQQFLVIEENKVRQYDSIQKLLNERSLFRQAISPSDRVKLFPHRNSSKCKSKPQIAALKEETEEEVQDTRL

Row | EC50 [nM] | Emax [%] | Emax (18-24 hours) [%] | SMILES
1 | 1000 to 3000 | > 60 |  | CCc1cccc(CC)c1-c1cc2nc(n1)NS(=O)(=O)c1cccc(c1)C(=O)N(Cc1cnc3oc(C4CC4)cc3n1)[C@H](CC(C)(C)C)CO2 [IV-68]
2 | < 1000 |  | > 60 | Cc1cccc(CCC(C)C)c1-c1nc2nc(c1C)OC[C@@H](CC(C)(C)C)N(Cc1cnc3cc(C(C)C)n(C)c3n1)C(=O)c1cccc(c1)S(=O)(=O)N2 (single isomer, unassigned) [Compound I-202]
3 | < 1000 | > 60 |  | Cc1cccc(C)c1-c1cc2nc(n1)NS(=O)(=O)c1cccc(c1)C(=O)N(Cc1cnc3cc(C4(C(F)(F)F)CC4)n(C)c3n1)[C@H](CC13CC(C1)C3)CO2 [IV-73]
4 | 1000 to 3000 | > 60 |  | Cc1cccc(C)c1-c1cc2nc(n1)NS(=O)(=O)c1cccc(c1)C(=O)N(Cc1cnc3oc(C4CC5(CC5)C4)cc3n1)[C@H](CC1(C)CC1)CO2 [IV-65]
5 | < 1000 | > 60 |  | Cc1cccc(CC(C)C)c1-c1nc2nc(c1C)OC[C@@H]([C@@H]1CCCO1)N(Cc1cnc3cc(C(C)(C)C)n(C)c3n1)C(=O)c1cccc(c1)S(=O)(=O)N2 (atropisomer, axis not shown) [IV-95]
6 | 1000 to 3000 | > 60 |  | Cc1cccc(CC(C)C)c1-c1nc2nc(c1C)OC[C@@H](CC1(C)CC1)N(Cc1cnc3cc(C(C)(C)C)n(C)c3n1)C(=O)c1cccc(n1)S(=O)(=O)N2 [IV-72]
7 | < 1000 | > 60 |  | Cc1cccc(C)c1-c1cc2nc(n1)NS(=O)(=O)c1cccc(c1)C(=O)N(Cc1cnc3cc(C(C)(C)C)n(C)c3n1)[C@H](C1CCCO1)CO2 (single isomer, unassigned) [IV-96]
8 | < 1000 | > 60 |  | COCc1c(C(C)(C)C)n(C)c2nc(CN3C(=O)c4cccc(c4)S(=O)(=O)Nc4nc(cc(-c5c(C)cccc5C)n4)OC[C@H]3CC34CC(C3)C4)cnc12 [IV-89, (11R)-11-(1-bicyclo[1.1.1]pentanylmethyl)-12-[[6-tert-butyl-7-(methoxymethyl)-5-methyl-pyrrolo[2,3-b]pyrazin-3-yl]methyl]-6-(2,6-dimethylphenyl)-2,2-dioxo-9-oxa-2λ^6-thia-3,5,12,19-tetrazatricyclo[12.3.1.14,8]nonadeca-1(18),4(19),5,7,14,16-hexaen-13-one]
9 | 1000 to 3000 |  | > 60 | C=C(C)c1cc2nc(CN3C(=O)c4cccc(c4)S(=O)(=O)Nc4nc(cc(-c5c(C)cccc5C)n4)OC[C@H]3CC3(C)CC3)cnc2o1 [Compound I-255, (11R)-6-(2,6-dimethylphenyl)-12-[(6-isopropenylfuro[2,3-b]pyrazin-2-yl)methyl]-11-[(1-methylcyclopropyl)methyl]-2,2-dioxo-9-oxa-2λ^6-thia-3,5,12,19-tetrazatricyclo[12.3.1.14,8]nonadeca-1(18),4(19),5,7,14,16-hexaen-13-one]
10 | 1000 to 3000 |  | > 60 | Cc1cccc(C)c1-c1cc2nc(n1)NS(=O)(=O)c1cccc(c1)C(=O)N(Cc1ncc3oc(C(C)(C)C)cc3n1)[C@H](CC13CC(C1)C3)CO2 [Compound I-251]
11 | < 1000 | > 60 |  | Cc1cccc(CC(C)C)c1-c1nc2nc(c1C)OC[C@@H](C[C@@H]1CCCCO1)N(Cc1cnc3cc(C(C)(C)C)n(C)c3n1)C(=O)c1cccc(c1)S(=O)(=O)N2 (atropisomer, axis not shown) [IV-81]
12 | 1000 to 3000 | > 60 |  | Cc1cccc(C)c1-c1cc2nc(n1)NS(=O)(=O)c1cccc(c1)C(=O)N(Cc1cnc3oc(C4(C)CC4)cc3n1)[C@H](C[C@@H]1CCCO1)CO2 [IV-84]
13 | 1000 to 3000 | 30 to 60 |  | Cc1cccc(C)c1-c1cc2nc(n1)NS(=O)(=O)c1cccc(c1)C(=O)N(Cc1cnc3cc(C4(C(F)(F)F)CC4)n(C)c3n1)[C@H](CC1(C)CC1)CO2 [IV-75]
14 | < 1000 |  | > 60 | Cc1cccc(C)c1-c1nc2nc(c1C)OC[C@@H](CC(C)(C)C)N(Cc1ncc3oc(C(C)(C)C)cc3n1)C(=O)c1cccc(c1)S(=O)(=O)N2 [Compound I-259]
